Experiments:
Type in all cases: binding
[1] = biological target: kinases (KINOMEscan panel) (Homo sapiens, UniProt O94921); conditions: NEW KINOMEscan
[2] = biological target: kinases (KINOMEscan panel) (Homo sapiens, UniProt P10721, L576P); conditions: KIT(L576P); NEW KINOMEscan
[3] = biological target: kinases (KINOMEscan panel) (Homo sapiens, UniProt P22455); conditions: NEW KINOMEscan
[4] = biological target: kinases (KINOMEscan panel) (Homo sapiens, UniProt P22607, G697C); conditions: FGFR3(G697C); NEW KINOMEscan
[5] = biological target: kinases (KINOMEscan panel) (Homo sapiens, UniProt P29317); conditions: EPHA2; NEW KINOMEscan
[6] = biological target: kinases (KINOMEscan panel) (Homo sapiens, UniProt P48736); conditions: kinase PIK3CG; NEW KINOMEscan
[7] = biological target: kinases (KINOMEscan panel) (Homo sapiens, UniProt Q13555); conditions: CAMK2G; NEW KINOMEscan
[8] = biological target: kinases (KINOMEscan panel) (Homo sapiens, UniProt Q14680); conditions: kinase MELK; NEW KINOMEscan
[9] = biological target: T1, kinases (KINOMEscan panel) (Homo sapiens, UniProt Q16566); conditions: CAMK4; NEW KINOMEscan
T1 sequence (Q16566 1-473): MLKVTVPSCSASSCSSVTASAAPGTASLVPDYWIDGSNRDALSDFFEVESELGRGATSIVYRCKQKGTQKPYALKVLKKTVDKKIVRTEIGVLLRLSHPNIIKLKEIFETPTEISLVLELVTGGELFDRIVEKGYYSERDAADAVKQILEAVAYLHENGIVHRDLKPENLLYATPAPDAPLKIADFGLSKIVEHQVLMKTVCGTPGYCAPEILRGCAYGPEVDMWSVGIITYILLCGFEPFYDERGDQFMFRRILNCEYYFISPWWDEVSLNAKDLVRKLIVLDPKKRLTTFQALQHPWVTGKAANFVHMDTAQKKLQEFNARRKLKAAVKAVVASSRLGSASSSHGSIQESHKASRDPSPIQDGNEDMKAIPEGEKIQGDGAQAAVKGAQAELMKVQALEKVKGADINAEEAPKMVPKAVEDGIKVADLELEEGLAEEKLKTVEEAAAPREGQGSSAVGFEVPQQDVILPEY

[10] = biological target: kinases (KINOMEscan panel) (Homo sapiens, UniProt Q16816); conditions: PHKG1; NEW KINOMEscan
[11] = biological target: kinases (KINOMEscan panel) (Homo sapiens, UniProt Q5S007, G2019S); conditions: NEW KINOMEscan
[12] = biological target: kinases (KINOMEscan panel) (Homo sapiens, UniProt Q96RR4); conditions: CAMKK2; NEW KINOMEscan
[13] = biological target: T2, kinases (KINOMEscan panel) (Homo sapiens, UniProt Q99640); conditions: kinase PKMYT1; NEW KINOMEscan
T2 sequence (Q99640 1-499): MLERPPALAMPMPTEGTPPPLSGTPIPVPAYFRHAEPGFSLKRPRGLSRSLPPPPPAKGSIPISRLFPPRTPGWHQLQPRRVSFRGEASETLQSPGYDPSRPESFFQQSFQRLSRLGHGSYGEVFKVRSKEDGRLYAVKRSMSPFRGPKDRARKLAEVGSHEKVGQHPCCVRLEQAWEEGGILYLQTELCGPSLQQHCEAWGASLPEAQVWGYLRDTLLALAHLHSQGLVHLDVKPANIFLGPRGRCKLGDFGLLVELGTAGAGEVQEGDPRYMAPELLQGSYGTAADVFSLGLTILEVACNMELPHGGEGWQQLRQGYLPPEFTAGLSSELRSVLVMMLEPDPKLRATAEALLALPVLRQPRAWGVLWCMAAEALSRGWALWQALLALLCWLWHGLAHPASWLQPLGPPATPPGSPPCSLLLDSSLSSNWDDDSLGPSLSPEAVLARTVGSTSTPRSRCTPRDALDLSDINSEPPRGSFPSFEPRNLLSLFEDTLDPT

[14] = biological target: T3, kinases (KINOMEscan panel) (Homo sapiens, UniProt Q9UHD2); conditions: TBK1; NEW KINOMEscan
T3 sequence (Q9UHD2 1-729): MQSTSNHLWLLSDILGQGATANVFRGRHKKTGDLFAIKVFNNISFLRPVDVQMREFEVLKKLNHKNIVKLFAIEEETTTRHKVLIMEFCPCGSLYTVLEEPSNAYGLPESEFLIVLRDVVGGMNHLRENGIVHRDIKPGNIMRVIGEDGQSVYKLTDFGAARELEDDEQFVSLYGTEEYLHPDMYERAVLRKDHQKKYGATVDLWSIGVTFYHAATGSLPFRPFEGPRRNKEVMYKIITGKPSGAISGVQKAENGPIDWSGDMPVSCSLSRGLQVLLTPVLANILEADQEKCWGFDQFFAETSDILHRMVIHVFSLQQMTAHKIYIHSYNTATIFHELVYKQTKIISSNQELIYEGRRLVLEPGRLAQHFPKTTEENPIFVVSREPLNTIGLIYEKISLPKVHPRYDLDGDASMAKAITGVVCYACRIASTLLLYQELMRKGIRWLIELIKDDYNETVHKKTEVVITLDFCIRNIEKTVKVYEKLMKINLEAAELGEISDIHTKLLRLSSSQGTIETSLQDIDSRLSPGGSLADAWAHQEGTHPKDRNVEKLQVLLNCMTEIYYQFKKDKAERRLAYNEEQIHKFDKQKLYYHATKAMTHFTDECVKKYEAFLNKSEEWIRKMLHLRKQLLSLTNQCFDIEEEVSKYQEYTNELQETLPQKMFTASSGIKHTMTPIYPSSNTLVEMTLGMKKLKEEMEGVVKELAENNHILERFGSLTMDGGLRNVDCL

Chain of kinases (KINOMEscan panel) (Homo sapiens, UniProt Q14680) (Q14680 whole entry): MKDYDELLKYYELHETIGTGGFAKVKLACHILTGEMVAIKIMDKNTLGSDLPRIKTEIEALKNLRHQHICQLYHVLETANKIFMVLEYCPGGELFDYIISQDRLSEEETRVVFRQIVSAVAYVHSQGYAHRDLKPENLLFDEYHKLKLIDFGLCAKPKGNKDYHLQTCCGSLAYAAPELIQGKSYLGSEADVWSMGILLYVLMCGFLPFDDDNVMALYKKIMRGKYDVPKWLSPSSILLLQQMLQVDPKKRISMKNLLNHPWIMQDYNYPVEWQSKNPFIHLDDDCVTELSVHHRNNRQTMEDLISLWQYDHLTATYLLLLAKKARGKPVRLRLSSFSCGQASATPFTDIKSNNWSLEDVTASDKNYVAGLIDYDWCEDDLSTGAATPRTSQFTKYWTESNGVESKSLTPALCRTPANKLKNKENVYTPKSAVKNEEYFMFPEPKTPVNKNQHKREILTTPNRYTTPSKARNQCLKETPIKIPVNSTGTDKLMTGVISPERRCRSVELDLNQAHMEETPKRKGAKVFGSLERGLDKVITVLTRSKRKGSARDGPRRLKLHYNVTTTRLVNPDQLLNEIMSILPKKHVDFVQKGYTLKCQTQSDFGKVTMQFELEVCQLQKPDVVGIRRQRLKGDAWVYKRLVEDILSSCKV
Chain of kinases (KINOMEscan panel) (Homo sapiens, UniProt P10721, L576P) (P10721 26-976 L576P): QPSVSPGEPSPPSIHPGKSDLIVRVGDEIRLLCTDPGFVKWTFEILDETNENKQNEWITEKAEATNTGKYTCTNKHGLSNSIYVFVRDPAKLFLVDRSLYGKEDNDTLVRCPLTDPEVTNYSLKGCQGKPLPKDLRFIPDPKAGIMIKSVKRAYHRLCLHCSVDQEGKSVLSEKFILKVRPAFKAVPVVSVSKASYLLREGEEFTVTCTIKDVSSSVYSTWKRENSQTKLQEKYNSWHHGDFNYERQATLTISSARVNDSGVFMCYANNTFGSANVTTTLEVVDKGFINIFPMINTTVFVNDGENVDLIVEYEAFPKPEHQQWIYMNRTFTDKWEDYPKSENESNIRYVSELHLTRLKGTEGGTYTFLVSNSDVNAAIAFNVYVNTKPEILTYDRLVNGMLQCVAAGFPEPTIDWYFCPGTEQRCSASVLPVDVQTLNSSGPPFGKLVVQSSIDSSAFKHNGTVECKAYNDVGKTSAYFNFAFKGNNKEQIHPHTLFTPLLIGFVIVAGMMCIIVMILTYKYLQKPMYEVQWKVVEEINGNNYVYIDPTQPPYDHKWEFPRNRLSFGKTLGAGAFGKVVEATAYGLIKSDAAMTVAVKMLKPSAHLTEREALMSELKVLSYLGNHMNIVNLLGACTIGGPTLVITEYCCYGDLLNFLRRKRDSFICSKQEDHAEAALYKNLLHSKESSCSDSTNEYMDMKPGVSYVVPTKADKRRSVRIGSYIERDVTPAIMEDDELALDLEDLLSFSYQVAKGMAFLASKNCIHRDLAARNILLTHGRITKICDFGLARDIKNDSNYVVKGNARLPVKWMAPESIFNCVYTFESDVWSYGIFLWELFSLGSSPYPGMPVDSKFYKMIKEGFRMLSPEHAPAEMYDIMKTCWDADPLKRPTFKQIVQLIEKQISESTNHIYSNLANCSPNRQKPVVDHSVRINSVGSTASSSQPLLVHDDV
Chain of kinases (KINOMEscan panel) (Homo sapiens, UniProt P29317) (P29317 24-976): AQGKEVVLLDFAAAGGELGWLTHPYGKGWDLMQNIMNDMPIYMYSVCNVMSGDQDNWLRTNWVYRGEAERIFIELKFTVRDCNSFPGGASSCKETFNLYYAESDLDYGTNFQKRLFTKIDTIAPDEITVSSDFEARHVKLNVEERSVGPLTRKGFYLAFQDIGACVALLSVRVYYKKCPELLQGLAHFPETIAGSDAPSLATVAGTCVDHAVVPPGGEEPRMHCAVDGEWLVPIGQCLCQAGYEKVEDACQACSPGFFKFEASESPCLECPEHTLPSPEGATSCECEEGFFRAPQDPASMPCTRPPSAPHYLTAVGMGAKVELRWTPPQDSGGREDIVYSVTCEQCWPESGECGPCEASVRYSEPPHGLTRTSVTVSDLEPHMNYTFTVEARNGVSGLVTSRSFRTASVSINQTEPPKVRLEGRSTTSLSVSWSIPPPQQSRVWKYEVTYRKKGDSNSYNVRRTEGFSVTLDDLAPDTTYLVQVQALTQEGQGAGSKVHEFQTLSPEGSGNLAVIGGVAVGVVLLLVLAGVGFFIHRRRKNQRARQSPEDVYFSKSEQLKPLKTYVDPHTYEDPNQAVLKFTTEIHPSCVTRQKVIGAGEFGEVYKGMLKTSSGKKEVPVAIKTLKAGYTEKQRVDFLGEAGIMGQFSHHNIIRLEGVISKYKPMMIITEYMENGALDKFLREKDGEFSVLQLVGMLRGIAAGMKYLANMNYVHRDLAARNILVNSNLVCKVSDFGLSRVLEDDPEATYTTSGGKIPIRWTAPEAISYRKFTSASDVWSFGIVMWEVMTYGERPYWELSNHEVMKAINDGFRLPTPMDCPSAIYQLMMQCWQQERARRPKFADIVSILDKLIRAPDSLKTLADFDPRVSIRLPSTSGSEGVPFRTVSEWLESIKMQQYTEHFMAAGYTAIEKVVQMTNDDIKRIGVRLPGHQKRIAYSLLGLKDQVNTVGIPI
Chain of kinases (KINOMEscan panel) (Homo sapiens, UniProt P48736) (P48736 whole entry): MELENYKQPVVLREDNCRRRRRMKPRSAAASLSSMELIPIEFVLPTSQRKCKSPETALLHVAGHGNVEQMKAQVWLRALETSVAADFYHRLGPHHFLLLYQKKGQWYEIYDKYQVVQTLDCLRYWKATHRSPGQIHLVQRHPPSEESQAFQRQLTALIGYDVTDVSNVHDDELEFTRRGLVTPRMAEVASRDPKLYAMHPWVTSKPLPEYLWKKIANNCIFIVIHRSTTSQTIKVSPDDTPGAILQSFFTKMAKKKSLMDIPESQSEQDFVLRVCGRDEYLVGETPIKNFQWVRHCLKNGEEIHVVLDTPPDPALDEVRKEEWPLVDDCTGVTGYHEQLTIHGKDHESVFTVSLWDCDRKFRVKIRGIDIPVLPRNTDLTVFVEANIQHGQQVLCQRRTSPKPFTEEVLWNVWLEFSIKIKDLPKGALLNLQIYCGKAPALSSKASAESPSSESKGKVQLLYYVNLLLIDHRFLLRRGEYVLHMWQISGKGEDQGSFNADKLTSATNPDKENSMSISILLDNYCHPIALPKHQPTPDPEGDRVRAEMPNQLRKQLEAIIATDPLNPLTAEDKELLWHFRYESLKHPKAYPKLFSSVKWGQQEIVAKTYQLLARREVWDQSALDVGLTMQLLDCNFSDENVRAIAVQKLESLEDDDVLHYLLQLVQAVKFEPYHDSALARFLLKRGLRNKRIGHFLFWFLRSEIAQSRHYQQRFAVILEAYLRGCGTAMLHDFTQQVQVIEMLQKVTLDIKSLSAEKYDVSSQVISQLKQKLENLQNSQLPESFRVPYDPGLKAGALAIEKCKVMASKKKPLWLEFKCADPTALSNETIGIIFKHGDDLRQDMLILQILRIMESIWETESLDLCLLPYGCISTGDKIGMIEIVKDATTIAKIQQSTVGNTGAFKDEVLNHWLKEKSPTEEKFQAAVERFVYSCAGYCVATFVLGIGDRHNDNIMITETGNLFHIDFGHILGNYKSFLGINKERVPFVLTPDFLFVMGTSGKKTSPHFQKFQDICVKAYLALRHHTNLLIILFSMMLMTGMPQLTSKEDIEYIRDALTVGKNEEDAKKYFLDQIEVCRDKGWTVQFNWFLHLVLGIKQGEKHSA
Chain of kinases (KINOMEscan panel) (Homo sapiens, UniProt P22455) (P22455 22-802): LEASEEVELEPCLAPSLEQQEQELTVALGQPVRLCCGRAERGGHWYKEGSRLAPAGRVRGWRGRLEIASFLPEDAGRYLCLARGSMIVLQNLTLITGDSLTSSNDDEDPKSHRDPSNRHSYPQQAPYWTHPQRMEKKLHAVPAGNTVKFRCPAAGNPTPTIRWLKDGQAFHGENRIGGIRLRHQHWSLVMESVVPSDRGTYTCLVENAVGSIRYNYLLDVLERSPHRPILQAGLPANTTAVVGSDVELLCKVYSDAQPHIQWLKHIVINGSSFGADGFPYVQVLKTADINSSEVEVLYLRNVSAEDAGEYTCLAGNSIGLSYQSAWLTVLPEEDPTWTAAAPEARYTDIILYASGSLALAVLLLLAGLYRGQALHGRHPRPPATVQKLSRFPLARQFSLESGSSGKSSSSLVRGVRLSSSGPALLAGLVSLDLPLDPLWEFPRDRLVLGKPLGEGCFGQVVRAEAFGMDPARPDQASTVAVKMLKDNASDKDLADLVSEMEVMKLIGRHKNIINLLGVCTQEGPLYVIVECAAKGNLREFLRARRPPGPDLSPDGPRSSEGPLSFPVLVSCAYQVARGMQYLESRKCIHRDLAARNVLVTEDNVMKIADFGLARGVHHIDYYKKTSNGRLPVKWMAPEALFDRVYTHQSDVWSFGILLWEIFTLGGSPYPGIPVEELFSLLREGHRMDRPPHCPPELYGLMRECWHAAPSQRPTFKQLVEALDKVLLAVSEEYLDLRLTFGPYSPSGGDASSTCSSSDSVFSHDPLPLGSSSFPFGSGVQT
Chain of kinases (KINOMEscan panel) (Homo sapiens, UniProt Q16816) (Q16816 whole entry): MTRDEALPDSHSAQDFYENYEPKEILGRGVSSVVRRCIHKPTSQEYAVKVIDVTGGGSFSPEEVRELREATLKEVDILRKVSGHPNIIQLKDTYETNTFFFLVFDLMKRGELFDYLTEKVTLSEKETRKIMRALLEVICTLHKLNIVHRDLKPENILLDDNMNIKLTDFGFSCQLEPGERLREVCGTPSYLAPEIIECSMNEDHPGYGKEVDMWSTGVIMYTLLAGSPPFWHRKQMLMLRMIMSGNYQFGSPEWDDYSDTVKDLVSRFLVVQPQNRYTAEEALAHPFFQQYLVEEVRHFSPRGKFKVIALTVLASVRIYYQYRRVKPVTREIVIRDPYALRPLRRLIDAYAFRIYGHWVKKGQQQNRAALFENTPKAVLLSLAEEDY

In the case of `Cc1cccc(-c2nc(Nc3ccc4nn(C)cc4c3)c3ccccc3n2)n1` [NK167], the “KINOMEscan CDK14” value [1] is reported as 17, the “KINOMEscan KIT(L576P)” value [2] is reported as 3 and the “KINOMEscan FGFR4” value [3] is reported as 16. The “KINOMEscan FGFR3(G697C)” value [4] was 6, the “KINOMEscan EPHA2” value [5] was 0 and the “KINOMEscan PIK3CG” value [6] was 0. The “KINOMEscan CAMK2G” value [7] was 0, the “KINOMEscan MELK” value [8] was 0 and the “KINOMEscan CAMK4” value [9] was 2. For the same compound, the “KINOMEscan PHKG1” value [10] was 5, the “KINOMEscan LRRK2(G2019S)” value [11] was 39 and the “KINOMEscan CAMKK2” value [12] was 6. For the same compound, the “KINOMEscan PKMYT1” value [13] was 0 and the “KINOMEscan TBK1” value [14] was 44.

With `Cc1cccc(-c2nc(N(C)c3ccc4ncsc4c3)c3ccccc3n2)n1` [NK-161] the “KINOMEscan CDK14” value [1] was 0, the “KINOMEscan KIT(L576P)” value [2] was 0 and the “KINOMEscan FGFR4” value [3] was 19. For the same compound, the “KINOMEscan FGFR3(G697C)” value [4] was 0, the “KINOMEscan EPHA2” value [5] was 2 and the “KINOMEscan PIK3CG” value [6] was 8. For the same compound, the “KINOMEscan CAMK2G” value [7] was 0, the “KINOMEscan MELK” value [8] was 2 and the “KINOMEscan CAMK4” value [9] was 7. The “KINOMEscan PHKG1” value [10] was 5, the “KINOMEscan LRRK2(G2019S)” value [11] was 31 and the “KINOMEscan CAMKK2” value [12] was 9. The “KINOMEscan PKMYT1” value [13] was 0 and the “KINOMEscan TBK1” value [14] was 25.

Source: PMC9851200, “Multiparameter phenotypic screening for endogenous TFEB and TFE3 translocation identifies novel chemical series modulating lysosome function” (Autophagy, 2022)
